Values quoted from earlier work as cited in paper PMC10468453, “First-in-human study of a novel cell death tracer [^99mTc]Tc-Duramycin: safety, biodistribution and radiation dosimetry in healthy volunteers” (EJNMMI Radiopharmacy and Chemistry, 2023).

Settings: humans; ref Challapalli et al. [2013]; Doss et al. [2013]; Hoglund et al. [2011]; Kemerink et al. [2003]; Quinn et al. [2016]
From the text: We determined the mean effective dose of [^99mTc]Tc-Duramycin as 7.6 µSv/MBq, corresponding to a total effective dose of 3.60 mSv for a patient dose of 473 MBq.

For `O=C[C@H]([18F])[C@@H](O)[C@H](O)[C@H](O)CO` [[^18F]FDG, 2-[^18F]fluoro-2-deoxy-D-glucose], which Effective dose is on record?
The Effective dose was 9.0 mSv.

With `O=C1C(=O)N(Cc2cn(CC[18F])nn2)c2ccc(S(=O)(=O)N3CCCC3COc3ccc(F)cc3F)cc21` (stereo not drawn) [[^18F]ICMT-11] as the compound, how does the Effective dose read?
Its Effective dose is 12.5 mSv.

Which Effective dose does the source give for “[^99mTc]HYNIC-annexin V: radiolabeled annexin V, a phosphatidylserine-binding protein” here?
The Effective dose was 5.5 mSv.
